Test results from PMC6630517 (Molecules, 2019).
Read-outs that look alike come from different tables or passages of the source.

Assays:
[1] = test system: chloroquine-sensitive (CQS) NF54 strain of Plasmodium falciparum; assay: In vitro antiplasmodial assay (parasite lactate dehydrogenase), NF54 strain; type: cell-based; conditions: for activity in the sensitive strain (in words): NF54 strain
Protocol: (§1) Continuous in vitro cultures of asexual erythrocyte stages of P. falciparum were maintained using a modified method by Trager and Jensen. Quantitative assessment of the antiplasmodial activity in vitro was determined via the parasite lactate dehydrogenase assay using a modified method described by Makler. […] Samples were tested as a suspension if not completely dissolved. Stock solutions were stored at −20 °C. Further dilutions were prepared on the day of the experiment. […] The vitamin B12 complexes were tested at starting concentrations up to 50 μg/ mL, which was then serially diluted 2-fold in complete medium to give 10 concentrations. The ligands were tested at a starting concentration of 10 μg/mL, which was serially diluted 2-fold in complete medium to give 10 concentrations. […] The IC50 values were obtained using a non-linear dose-response curve fitting analysis via Graph Pad Prism v.5.0 software (GraphPad Software Inc., San Diego, CA, USA).

[2] = test system: chloroquine-resistant (CQR) K1 strain of Plasmodium falciparum; assay: In vitro antiplasmodial assay (parasite lactate dehydrogenase), K1 strain; type: cell-based; conditions: for Resistance Index (RI): RI = IC50 (CQR)/IC50 (CQS); for activity against the CQR K1 strain relative to CQS (in words): resistance indices very close to unity
Protocol: as §1

[3] = test system: zebrafish (Danio rerio) embryos; assay: Zebrafish embryo toxicity (lethal, developmental, cardiotoxicity); conditions: 6 to 120 hpf; for toxicity in zebrafish embryos (survival/teratogenicity, in words): doses up to 150 µM
Protocol: The toxicity evaluation of B12-JR1, B12-JR1-CBC and vitamin B12 in the zebrafish model was carried out according to general rules of the OECD Guidelines for the Testing of Chemicals. […] Embryos of wild type zebrafish (Danio rerio, AB strain) were raised in a temperature- and light-controlled zebrafish facility with 28 °C and standard 14:10-h light-dark photoperiod, and regularly fed with commercially dry flake food (TetraMin™ flakes; Tetra Melle, Germany) twice a day and Artemia nauplii once daily. Zebrafish embryos were produced by the pair-wise mating, collected and distributed into 24-well plates containing 10 embryos per well and 1 mL embryos water (0.2 g L^−1 of Instant Ocean® Salt in distilled water), and raised at 28 °C. […] Experiments were performed three times using 30 embryos per concentration. Apical endpoints for the toxicity evaluation (Table S1) were recorded at 24, 48, 72, 96 and 120 hpf using an inverted microscope (CKX41; Olympus, Tokyo, Japan). […] Experiments were performed three times using 5 embryos per concentration. The hepatotoxicity was determined according to the change of liver area index compared to the control group, calculated as the ration between liver area and embryonic lateral area x 100%, as reported by Zhang et al.. In addition, the liver colour and retention of yolk were followed as the phenotypic signs of hepatotoxicity.

[4] = test system: human lung fibroblasts (MRC5) cell line; assay: In vitro cytotoxicity, MTT assay, MRC5; type: cell-based; conditions: 48 h, 5 to 200 μM, read-out: IC50 against MRC5
Protocol: (§2) B12-JR1 was screened for in vitro cytotoxicity against the Chinese Hamster Ovarian (CHO) cell-line using the 3-(4,5-dimethylthiazol-2-yl)-2,5-diphenyltetrazolium bromide (MTT)-assay. The test sample was prepared to a 20 mg mL^−1 stock solution in 100% DMSO and tested in triplicate. Stock solutions were stored at −20 °C. Further dilutions were prepared in complete medium on the day of the experiment. Samples were tested as a suspension if not completely dissolved. Emetine was used as the reference drug in all experiments. The initial concentration of emetine was 100 µg mL^−1, which was diluted in complete medium with 10-fold dilutions to give 6 concentrations, the lowest being 0.001 µg mL^−1. The same dilution technique was applied to all test samples. The highest concentration of solvent to which the cells were exposed to have no measurable effect on the cell viability. […] Furthermore, the cytotoxicity in terms of the antiproliferative effect of B12-JR1, B12-JR2 and B12-JR3 were similarly evaluated by the MTT assay. The assay was carried out using human lung fibroblasts (MRC5) cell line after 48 h of cell incubation in the medium, containing compounds at concentrations ranging from 5 to 200 μM. […] The results were expressed as mean values ± standard deviation (SD) and analysed using Student’s t-test at a threshold level of p = 0.05. […]

[5] = test system: Chinese Hamster Ovarian (CHO) cell-line; type: cell-based
Protocol: as §2

[6] = test system: liver of Tg(fabp10:EGFP) zebrafish embryos; assay: Zebrafish hepatotoxicity, transgenic Tg(fabp10:EGFP) embryos; type: in vivo, Danio rerio; conditions: 150 µM
Protocol: (§3) Because liver toxicity presents one of the most common drawbacks of the drugs approved for the human use, the drugs synthesized in this study were examined for the possible hepatotoxicity in vivo. The transgenic Tg(fabp:EGFP) zebrafish embryos exposed at 72 hpf (a stage when the liver is becoming vascularized and performing metabolic transformation of the absorbed compounds) to the synthesized drugs were evaluated for the liver colour (a possible necrosis sign), size, fluorescence and the liver area index ([…]). These are all parameters commonly used for hepatotoxicity evaluation and to follow the effect of applied therapies on the liver function.
Dead embryos were counted and discarded every 24 h.

[7] = test system: Tg(fabp10:EGFP) zebrafish embryos; assay: Zebrafish bio-distribution, transgenic Tg(fabp10:EGFP) embryos; type: in vivo, Danio rerio
Protocol: as §3
To verify a preferential accumulation of B12-JR1-CBC in the liver, the compound was applied intravenously (parenteral use) to zebrafish embryos.

blood stage = conditions: cited from earlier work
[8] = CQS NF54 strain, asexual erythrocyte stages, triplicate, na = not active at the tested concentration, read-out: NF54 IC50 ± SD
[9] = CQR K1 strain, asexual erythrocyte stages, triplicate, read-out: K1 IC50 ± SD
[10] = Plasmodium falciparum, CQS NF54 strain, asexual erythrocyte stages, triplicate, na = not active at the tested concentration, read-out: NF54 IC50 ± SD
[11] = Plasmodium falciparum, CQR K1 strain, asexual erythrocyte stages, triplicate, read-out: K1 IC50 ± SD

## cobalamin-7-chloro-N-(2-(4-(4-ethynyl-3-fluorophenyl)-1H-1,2,3-triazol-1-yl)ethyl)quinolin-4-amine [Compound B12-JR2]
[1]; [8]
  IC50: 4.73 ± 0.32 µM
[2]; [9]
  IC50: 6.02 ± 0.71 µM
[2]
  Resistance Index (RI): 1.3
  activity against the CQR K1 strain relative to CQS (in words): equally active

## CCN(CC)CCCC(C)Nc1ccnc2cc(Cl)ccc12 (centres unmarked) [CQ, chloroquine, reference compound]
[1]; Plasmodium falciparum, NF54, Erythrocyte, read-out: NF54 IC50 ± SD
  IC50: 0.013 ± 0.001 µM
[2]; Plasmodium falciparum, K1, Erythrocyte, read-out: K1 IC50 ± SD
  IC50: 0.4 ± 0.04 µM

## C#Cc1ccc(-c2cn(CC(=O)N3CCn4c(nc(-c5ccc(F)cc5)c4Nc4ccc(F)cc4)C3(C)C)nn2)cc1 [SN1, 2-(4-(4-ethynylphenyl)-1H-1,2,3-triazol-1-yl)-1-(2-(4-fluorophenyl)-3-((4-fluorophenyl)amino)-8,8-dimethyl-5,6-dihydroimidazo[1,2-a]pyrazin-7(8H)-yl)ethan-1-one]
[1]
  activity in the sensitive strain (in words): inactive

## C#Cc1ccc(-c2cn(CCNc3ccnc4cc(Cl)ccc34)nn2)cc1F [JR2, 7-chloro-N-(2-(4-(4-ethynyl-3-fluorophenyl)-1H-1,2,3-triazol-1-yl)ethyl)quinolin-4-amine]
[1]
  activity in the sensitive strain (in words): good activity
[1]; [10]
  IC50: 0.15 ± 0.01 µM
[2]; [11]
  IC50: 0.16 ± 0.01 µM
[2]
  Resistance Index (RI): 1.1

## cyanocobalamin [vitamin B12, reference compound]
[3]
  toxicity in zebrafish embryos (survival/teratogenicity, in words): neither toxic

## C#Cc1ccc(-c2cn(CCNc3ccnc4cc(Cl)ccc34)nn2)cc1 [JR1, 7-chloro-N-(2-(4-(4-ethynylphenyl)-1H-1,2,3-triazol-1-yl)ethyl)quinolin-4-amine]
[1]
  activity in the sensitive strain (in words): good activity
[1]; [10]
  IC50: 0.14 ± 0.01 µM
[2]; [11]
  IC50: 0.18 ± 0.02 µM
[2]
  Resistance Index (RI): 1.3

## Cobalamin-2-(4-(4-ethynylphenyl)-1H-1,2,3-triazol-1-yl)-1-(2-(4-fluorophenyl)-3-((4-fluorophenyl)amino)-8,8-dimethyl-5,6-dihydroimidazo[1,2-a]pyrazin-7(8H)-yl)ethan-1-one [Compound B12-SN1]
[1]
  activity in the sensitive strain (in words): inactive

## cobalamin-7-chloro-N-(2-(4-(4-ethynyl-2-fluorophenyl)-1H-1,2,3-triazol-1-yl)ethyl)quinolin-4-amine [Compound B12-JR3]
[1]; [8]
  IC50: 9.68 ± 0.73 µM
[2]; [9]
  IC50: > 15 µM
[2]
  Resistance Index (RI): >1.6

## cobalamin-7-chloro-N-(2-(4-(4-ethynylphenyl)-1H-1,2,3-triazol-1-yl)ethyl)quinolin-4-amine [Compound B12-JR1]
[1]; [8]
  IC50: 6.27 ± 0.37 µM
[1]; Table 2, in vitro data obtained in the cell-based assay, read-out: IC50 NF54
  IC50: 6.3 µM
[2]; [9]
  IC50: 9.18 ± 0.85 µM
[2]
  Resistance Index (RI): 1.5
  activity against the CQR K1 strain relative to CQS (in words): equally active
[2]; Table 2, in vitro data obtained in the cell-based assay, read-out: IC50 K1
  IC50: 9.2 µM
[4]
  IC50: 70 µM
[5]
  toxicity against CHO cells (in words): not to be toxic
[3]
  toxicity in zebrafish embryos (survival/teratogenicity, in words): neither toxic
[3]; zebrafish model
  LC50: > 150 µM
[6]; exposure 72–120 hpf
  liver area index (in words): did not affect the liver area index
  liver size and fluorescence (in words): no changes in the liver size and fluorescence
[6]; dose 16–24 higher than the one active against Plasmodium strains
  hepatotoxicity (in words): not hepatotoxic
[7]; 150 µM, 106–120 hpf
  organ distribution when applied in the embryo water (in words): preferential accumulation of both compounds in the liver
[7]; after the exposure period, 150 µM of B12-JR1 and 20 µM B12-JR1-CBC
  effect on liver development (in words): did not affect the liver development
[7]; parenteral, microinjected at 106 hpf, analysed at 120 hpf
  organ distribution after microinjection into the blood circulation (in words): solely detected in the liver

## C#Cc1ccc(-c2cn(CCNc3ccnc4cc(Cl)ccc34)nn2)c(F)c1 [JR3, 7-chloro-N-(2-(4-(4-ethynyl-2-fluorophenyl)-1H-1,2,3-triazol-1-yl)ethyl)quinolin-4-amine]
[1]
  activity in the sensitive strain (in words): good activity
[1]; [10]
  IC50: 0.19 ± 0.02 µM
[2]; [11]
  IC50: 0.21 ± 0.02 µM
[2]
  Resistance Index (RI): 1.1

## C/C1=C2/[N-][C@H]([C@H](CC(N)=O)[C@@]2(C)CCC(=O)NC[C@@H](C)OP(=O)([O-])O[C@H]2[C@@H](O)[C@@H](n3cnc4cc(C)c(C)cc43)O[C@@H]2CO)[C@]2(C)N=C(/C(C)=C3N=C(/C=C4N=C1[C@@H](CCC(N)=O)C\4(C)C)[C@@H](CCC(N)=O)[C@]\3(C)CC(N)=O)[C@@H](CCC(N)=O)[C@]2(C)CC(N)=O.[CH2-][C@H]1O[C@@H](n2cnc3c(N)ncnc32)[C@H](O)[C@@H]1O.[Co] [Ado-Cbl, adenosylcobalamin]
Blood stage
  rank of antimalarial activity among naturally occurring Cbls (in words): most active
